Test results as given in paper PMC5218480 (PLoS ONE, 2017).

System: MV-4-11 cells
Assay: Gene expression microarray analysis (Affymetrix PrimeView) and GSEA
Format: cell-based, human
Set-up: RFU PODN (11730768_x_at) / Fold change /veh PODN (11730768_x_at) / RFU LINC00158 (11744669_a_at) / Fold change /veh LINC00158 (11744669_a_at) / RFU DUSP10 (11751237_a_at) / Fold change /veh DUSP10 (11751237_a_at) / RFU ID3 (11757404_x_at) / Fold change /veh ID3 (11757404_x_at) / RFU PLEKHG5 (11737974_s_at) / Fold change /veh PLEKHG5 (11737974_s_at) / RFU LRRC4B (11730491_at) / Fold change /veh LRRC4B (11730491_at) / RFU GIMAP4 (11747438_a_at) / Fold change /veh GIMAP4 (11747438_a_at) / RFU KRT8 (11758183_x_at) / Fold change /veh KRT8 (11758183_x_at) / RFU CNN1 (11734310_a_at) / Fold change /veh CNN1 (11734310_a_at) / RFU VPS37D (11726825_at) / Fold change /veh VPS37D (11726825_at) / RFU C10orf10 (11716522_x_at) / Fold change /veh C10orf10 (11716522_x_at) / RFU KIR2DL2 /// KIR2DL4 /// KIR2DL5A /// KIR2DL5B /// KIR2DS1 /// KIR2DS2 /// KIR2DS3 /// KIR2DS4 /// KIR3DL3 /// KIR3DL3 /// KIR3DS1 (11738374_at) / Fold change /veh KIR2DL2 /// KIR2DL4 /// KIR2DL5A /// KIR2DL5B /// KIR2DS1 /// KIR2DS2 /// KIR2DS3 /// KIR2DS4 /// KIR3DL3 /// KIR3DL3 /// KIR3DS1 (11738374_at) / RFU C1QL1 (11718748_at) / Fold change /veh C1QL1 (11718748_at) / RFU TMPRSS4 (11747572_a_at) / Fold change /veh TMPRSS4 (11747572_a_at) / RFU HAMP (11756126_x_at) / Fold change /veh HAMP (11756126_x_at) / RFU RNFT2 (11725882_a_at) / Fold change /veh RNFT2 (11725882_a_at) / RFU NR4A2 (11747474_a_at) / Fold change /veh NR4A2 (11747474_a_at) / RFU ABCC12 (11746883_a_at) / Fold change /veh ABCC12 (11746883_a_at) / RFU TMEM136 (11760407_x_at) / Fold change /veh TMEM136 (11760407_x_at) / RFU CLDN22 /// WWC2 (11732394_at) / Fold change /veh CLDN22 /// WWC2 (11732394_at) / RFU HLA-DPB1 (11760878_x_at) / Fold change /veh HLA-DPB1 (11760878_x_at) / RFU SPINT1 (11716480_a_at) / Fold change /veh SPINT1 (11716480_a_at) / RFU GAP43 (11754022_s_at) / Fold change /veh GAP43 (11754022_s_at) / RFU A4GNT (11735810_at) / Fold change /veh A4GNT (11735810_at) / RFU PRB3 (11715151_x_at) / Fold change /veh PRB3 (11715151_x_at) / RFU TUBB4B (11761932_at) / Fold change /veh TUBB4B (11761932_at) / RFU CAPN14 (11732068_a_at) / Fold change /veh CAPN14 (11732068_a_at) / RFU TMCC2 (11721928_a_at) / Fold change /veh TMCC2 (11721928_a_at) / RFU IRGQ (11745062_a_at) / Fold change /veh IRGQ (11745062_a_at) / RFU FAM174B (11720279_a_at) / Fold change /veh FAM174B (11720279_a_at) / RFU TMPRSS4 (11748680_a_at) / Fold change /veh TMPRSS4 (11748680_a_at) / RFU FAM212B (11763350_a_at) / Fold change /veh FAM212B (11763350_a_at) / RFU PLEKHG5 (11743358_a_at) / Fold change /veh PLEKHG5 (11743358_a_at) / RFU ZSCAN30 (11745921_a_at) / Fold change /veh ZSCAN30 (11745921_a_at) / RFU CMKLR1 (11741424_a_at) / Fold change /veh CMKLR1 (11741424_a_at) / RFU LOC101060620 /// MAPK8IP1 (11723275_at) / Fold change /veh LOC101060620 /// MAPK8IP1 (11723275_at) / RFU SPTSSB (11747773_x_at) / Fold change /veh SPTSSB (11747773_x_at) / RFU PRSS12 (11739890_at) / Fold change /veh PRSS12 (11739890_at) / RFU BIN1 (11741810_x_at) / Fold change /veh BIN1 (11741810_x_at) / RFU WNT11 (11732464_a_at) / Fold change /veh WNT11 (11732464_a_at) / RFU C10orf10 (11716521_a_at) / Fold change /veh C10orf10 (11716521_a_at) / RFU C5orf56 (11738089_at) / Fold change /veh C5orf56 (11738089_at) / RFU CYB561 (11721691_x_at) / Fold change /veh CYB561 (11721691_x_at) / RFU ANKRD19P (11752326_a_at) / Fold change /veh ANKRD19P (11752326_a_at) / RFU OR2T12 /// OR2T33 /// OR2T8 (11738714_s_at) / Fold change /veh OR2T12 /// OR2T33 /// OR2T8 (11738714_s_at) / RFU VCAN (11748164_a_at) / Fold change /veh VCAN (11748164_a_at) / RFU JSRP1 (11732532_at) / Fold change /veh JSRP1 (11732532_at) / RFU KRTAP10-11 (11738290_x_at) / Fold change /veh KRTAP10-11 (11738290_x_at) / RFU MYO3A (11730013_a_at) / Fold change /veh MYO3A (11730013_a_at) / RFU EBF3 (11725865_a_at) / Fold change /veh EBF3 (11725865_a_at) / RFU CAMK2N1 (11719241_x_at) / Fold change /veh CAMK2N1 (11719241_x_at) / RFU C5orf56 (11738088_a_at) / Fold change /veh C5orf56 (11738088_a_at) / RFU OLFML3 (11715873_a_at) / Fold change /veh OLFML3 (11715873_a_at) / RFU LOC100653217 /// NTM (11731650_a_at) / Fold change /veh LOC100653217 /// NTM (11731650_a_at) / RFU MAPK11 (11762145_a_at) / Fold change /veh MAPK11 (11762145_a_at) / RFU FIZ1 (11724087_x_at) / Fold change /veh FIZ1 (11724087_x_at) / RFU OASL (11726364_x_at) / Fold change /veh OASL (11726364_x_at) / RFU SOX15 (11748057_x_at) / Fold change /veh SOX15 (11748057_x_at) / RFU CD79A (11719716_a_at) / Fold change /veh CD79A (11719716_a_at) / RFU HIST1H1D (11736915_at) / Fold change /veh HIST1H1D (11736915_at) / RFU CASKIN2 (11723855_a_at) / Fold change /veh CASKIN2 (11723855_a_at) / RFU LOC730098 (11760151_x_at) / Fold change /veh LOC730098 (11760151_x_at) / RFU OR4N2 (11742367_at) / Fold change /veh OR4N2 (11742367_at) / RFU PRRT2 (11749266_a_at) / Fold change /veh PRRT2 (11749266_a_at) / RFU SNX32 (11753110_a_at) / Fold change /veh SNX32 (11753110_a_at) / RFU CDHR5 (11726645_a_at) / Fold change /veh CDHR5 (11726645_a_at) / RFU RCAN1 (11760418_a_at) / Fold change /veh RCAN1 (11760418_a_at) / RFU FAM167A (11723789_a_at) / Fold change /veh FAM167A (11723789_a_at) / RFU FAM26E (11764081_at) / Fold change /veh FAM26E (11764081_at) / RFU ISYNA1 (11749810_s_at) / Fold change /veh ISYNA1 (11749810_s_at) / RFU ACY1 (11761880_at) / Fold change /veh ACY1 (11761880_at) / RFU 11764098_at / Fold change /veh 11764098_at / RFU SAMD14 (11745864_x_at) / Fold change /veh SAMD14 (11745864_x_at) / RFU NPB (11741838_a_at) / Fold change /veh NPB (11741838_a_at) / RFU TMPRSS6 (11731388_a_at) / Fold change /veh TMPRSS6 (11731388_a_at) / RFU KRTAP10-2 (11738614_at) / Fold change /veh KRTAP10-2 (11738614_at) / RFU ARHGAP8 /// PRR5-ARHGAP8 (11727945_x_at) / Fold change /veh ARHGAP8 /// PRR5-ARHGAP8 (11727945_x_at) / RFU KRTAP5-7 /// NADSYN1 (11734609_at) / Fold change /veh KRTAP5-7 /// NADSYN1 (11734609_at) / RFU RASL12 (11751679_a_at) / Fold change /veh RASL12 (11751679_a_at) / RFU CDKN2B (11736163_a_at) / Fold change /veh CDKN2B (11736163_a_at) / RFU PRF1 (11729649_at) / Fold change /veh PRF1 (11729649_at) / RFU, ZNF638 /// ZNF638-IT1 / Fold change vs veh, ZNF638 /// ZNF638-IT1 / RFU, PANK3 / Fold change vs veh, PANK3 / RFU, SH3YL1 / Fold change vs veh, SH3YL1 / RFU, ZEB2 / Fold change vs veh, ZEB2 / RFU, NRIP1 / Fold change vs veh, NRIP1 / RFU, PTTG1IP / Fold change vs veh, PTTG1IP / RFU, CAPN2 / Fold change vs veh, CAPN2 / RFU, MED14 / Fold change vs veh, MED14 / RFU, SNORA58 / Fold change vs veh, SNORA58 / RFU, C1orf63 / Fold change vs veh, C1orf63 / RFU, LRRFIP1 / Fold change vs veh, LRRFIP1 / RFU, NDUFAF7 / Fold change vs veh, NDUFAF7 / RFU, SLC12A2 / Fold change vs veh, SLC12A2 / RFU, IBTK / Fold change vs veh, IBTK / RFU, ESF1 / Fold change vs veh, ESF1 / Fold change vs veh, TMEM50B / RFU, TAOK1 / Fold change vs veh, TAOK1 / RFU, ACBD3 / Fold change vs veh, ACBD3 / RFU, TMA16 / Fold change vs veh, TMA16 / RFU, RWDD3 / Fold change vs veh, RWDD3 / RFU, BCAT1 / Fold change vs veh, BCAT1 / RFU, EDEM3 / Fold change vs veh, EDEM3 / RFU, TMEM33 / Fold change vs veh, TMEM33 / RFU, WDR75 / Fold change vs veh, WDR75 / RFU, AHCTF1 / Fold change vs veh, AHCTF1 / RFU, TFRC / Fold change vs veh, TFRC / RFU, ZDHHC17 / Fold change vs veh, ZDHHC17 / RFU, NOM1 / Fold change vs veh, NOM1 / RFU, ARL8B / Fold change vs veh, ARL8B / RFU, ZBTB11 / Fold change vs veh, ZBTB11 / RFU, TAMM41 / Fold change vs veh, TAMM41 / RFU, KIAA1704 /// LOC100996395 / Fold change vs veh, KIAA1704 /// LOC100996395 / RFU, ING1 / Fold change vs veh, ING1 / RFU, TRMT61B / Fold change vs veh, TRMT61B / RFU, FUBP3 / Fold change vs veh, FUBP3 / RFU, TP53 / Fold change vs veh, TP53 / RFU, TNKS2 / Fold change vs veh, TNKS2 / RFU, ZFP14 / Fold change vs veh, ZFP14 / RFU, ACTR2 / Fold change vs veh, ACTR2 / RFU, PPP3R1 / Fold change vs veh, PPP3R1 / RFU, PIK3R1 / Fold change vs veh, PIK3R1 / RFU, HNRNPA1 / Fold change vs veh, HNRNPA1 / RFU, RNF170 / Fold change vs veh, RNF170 / RFU, ZNF28 / Fold change vs veh, ZNF28 / RFU, RNGTT / Fold change vs veh, RNGTT / RFU, OGT / Fold change vs veh, OGT / RFU, BRD1 / Fold change vs veh, BRD1 / RFU, MARS / Fold change vs veh, MARS / RFU, ZNF655 / Fold change vs veh, ZNF655 / RFU, FAHD1 / Fold change vs veh, FAHD1 / RFU, BDP1 / Fold change vs veh, BDP1 / RFU, LRRCC1 / Fold change vs veh, LRRCC1 / RFU, ARID1A / Fold change vs veh, ARID1A / RFU, ZNF146 / Fold change vs veh, ZNF146 / RFU, ZNF330 / Fold change vs veh, ZNF330 / RFU, GPN3 / Fold change vs veh, GPN3 / RFU, C9orf123 / Fold change vs veh, C9orf123 / RFU, N4BP2L2 / Fold change vs veh, N4BP2L2 / RFU, ARFIP1 / Fold change vs veh, ARFIP1 / RFU, FAM179B / Fold change vs veh, FAM179B / RFU, BCL10 / Fold change vs veh, BCL10 / RFU, UHRF1BP1L / Fold change vs veh, UHRF1BP1L / RFU, BET1 / Fold change vs veh, BET1 / RFU, CNOT2 / Fold change vs veh, CNOT2 / RFU, ZNF268 / Fold change vs veh, ZNF268 / Fold change vs veh, ZNF507 / RFU, DGCR2 / Fold change vs veh, DGCR2 / RFU, WDSUB1 / Fold change vs veh, WDSUB1 / Fold change vs veh, HSP90B1 /// MIR3652 / RFU, ADSS / Fold change vs veh, ADSS / RFU, GK / Fold change vs veh, GK / RFU, ZNF148 / Fold change vs veh, ZNF148 / RFU, TAF9 / Fold change vs veh, TAF9 / RFU, SLC1A5 / Fold change vs veh, SLC1A5 / RFU, SLMO2 / Fold change vs veh, SLMO2 / RFU, ABCC4 / Fold change vs veh, ABCC4 / RFU, LOC101060439 /// RAP1B / Fold change vs veh, LOC101060439 /// RAP1B / RFU, RFX7 / Fold change vs veh, RFX7 / RFU, GTPBP10 / Fold change vs veh, GTPBP10 / RFU, CNEP1R1 / Fold change vs veh, CNEP1R1 / RFU, BIVM-ERCC5 /// ERCC5 / Fold change vs veh, BIVM-ERCC5 /// ERCC5 / RFU, ILF3 / Fold change vs veh, ILF3 / RFU 11762660_at / Fold change /veh 11762660_at / RFU VCAN (11757783_s_at) / Fold change /veh VCAN (11757783_s_at) / RFU DDX43 (11728927_at) / Fold change /veh DDX43 (11728927_at) / RFU KRT8 (11758188_x_at) / Fold change /veh KRT8 (11758188_x_at) / RFU NKD1 (11759106_at) / Fold change /veh NKD1 (11759106_at) / RFU SRD5A1 (11742802_a_at) / Fold change /veh SRD5A1 (11742802_a_at) / RFU TPSAB1 /// TPSB2 (11721975_s_at) / Fold change /veh TPSAB1 /// TPSB2 (11721975_s_at) / RFU GSTM3 (11746129_a_at) / Fold change /veh GSTM3 (11746129_a_at) / RFU IL23R (11737362_x_at) / Fold change /veh IL23R (11737362_x_at) / RFU TMEM51 (11727254_a_at) / Fold change /veh TMEM51 (11727254_a_at) / RFU PIWIL2 (11732686_x_at) / Fold change /veh PIWIL2 (11732686_x_at) / RFU ORM1 (11744905_x_at) / Fold change /veh ORM1 (11744905_x_at) / RFU CCDC152 (11743942_at) / Fold change /veh CCDC152 (11743942_at) / RFU ECM1 (11717891_a_at) / Fold change /veh ECM1 (11717891_a_at) / RFU IL23R (11748794_a_at) / Fold change /veh IL23R (11748794_a_at) / RFU TNFAIP8L3 (11732012_x_at) / Fold change /veh TNFAIP8L3 (11732012_x_at) / RFU MBOAT4 (11741988_at) / Fold change /veh MBOAT4 (11741988_at) / RFU 11764193_at / Fold change /veh 11764193_at / RFU TMEM53 (11763286_at) / Fold change /veh TMEM53 (11763286_at) / RFU MAGEB2 (11727129_at) / Fold change /veh MAGEB2 (11727129_at) / RFU TMEM200A (11744735_a_at) / Fold change /veh TMEM200A (11744735_a_at) / RFU CCDC152 (11751479_a_at) / Fold change /veh CCDC152 (11751479_a_at) / RFU FAM211A (11726209_a_at) / Fold change /veh FAM211A (11726209_a_at) / RFU RGS16 (11746705_a_at) / Fold change /veh RGS16 (11746705_a_at) / RFU VCAN (11755009_s_at) / Fold change /veh VCAN (11755009_s_at) / RFU RHOB (11743442_s_at) / Fold change /veh RHOB (11743442_s_at) / RFU RGS16 (11720943_a_at) / Fold change /veh RGS16 (11720943_a_at) / RFU RGS16 (11720944_at) / Fold change /veh RGS16 (11720944_at) / RFU, VPS4B / Fold change vs veh, VPS4B / RFU, CREB1 / Fold change vs veh, CREB1 / RFU, DNAJC13 / Fold change vs veh, DNAJC13 / RFU, GNAQ / Fold change vs veh, GNAQ / RFU, CDK5R1 / Fold change vs veh, CDK5R1 / RFU, ZRANB3 / Fold change vs veh, ZRANB3 / RFU, CUL4A / Fold change vs veh, CUL4A / RFU, CCNY / Fold change vs veh, CCNY / RFU, UFL1 / Fold change vs veh, UFL1 / RFU, COG3 / Fold change vs veh, COG3 / RFU, DIAPH2 / Fold change vs veh, DIAPH2 / RFU, SKA2 / Fold change vs veh, SKA2 / RFU, AFF3 / Fold change vs veh, AFF3 / RFU, LMF1 / Fold change vs veh, LMF1 / RFU, IPO11 / Fold change vs veh, IPO11 / RFU, DFFB / Fold change vs veh, DFFB / RFU, FOXP1 / Fold change vs veh, FOXP1 / RFU, CARD8 / Fold change vs veh, CARD8 / RFU, STRN3 / Fold change vs veh, STRN3 / RFU, ADK / Fold change vs veh, ADK / RFU, RASSF2 / Fold change vs veh, RASSF2 / RFU, WIPF1 / Fold change vs veh, WIPF1 / RFU, LARP1B / Fold change vs veh, LARP1B / RFU, RASA1 / Fold change vs veh, RASA1 / RFU, RB1 / Fold change vs veh, RB1 / RFU, PPFIA1 / Fold change vs veh, PPFIA1 / RFU, MAT2A / Fold change vs veh, MAT2A / RFU, CCT5 / Fold change vs veh, CCT5 / RFU, WDR92 / Fold change vs veh, WDR92 / RFU, CUX1 / Fold change vs veh, CUX1 / RFU, TTC7A / Fold change vs veh, TTC7A / RFU, TMEM135 / Fold change vs veh, TMEM135 / RFU, DEPTOR / Fold change vs veh, DEPTOR / RFU, CPM / Fold change vs veh, CPM / RFU, DNAJB6 / Fold change vs veh, DNAJB6 / RFU, CACNA2D3 / Fold change vs veh, CACNA2D3 / RFU, DTX4 / Fold change vs veh, DTX4 / RFU, TFCP2 / Fold change vs veh, TFCP2 / RFU, GMCL1 /// GMCL1P1 / Fold change vs veh, GMCL1 /// GMCL1P1 / RFU, AEBP2 / Fold change vs veh, AEBP2 / RFU, SNHG1 /// SNORD22 /// SNORD25 /// SNORD26 /// SNORD27 /// SNORD28 /// SNORD29 /// SNORD31 / Fold change vs veh, SNHG1 /// SNORD22 /// SNORD25 /// SNORD26 /// SNORD27 /// SNORD28 /// SNORD29 /// SNORD31 / Fold change (Aza/veh), C12orf56 (ProbeSet 11735607_a_at) / Fold change (ACY-1035/veh), C12orf56 (ProbeSet 11735607_a_at) / Fold change (Aza/veh), FGFR1OP (ProbeSet 11751329_s_at) / Fold change (ACY-1035/veh), FGFR1OP (ProbeSet 11751329_s_at) / Fold change (Aza/veh), VPS36 (ProbeSet 11739960_a_at) / Fold change (ACY-1035/veh), VPS36 (ProbeSet 11739960_a_at) / RFU SYPL1 (11715823_x_at) / Fold change /veh SYPL1 (11715823_x_at) / RFU IGFBP7 (11715501_s_at) / Fold change /veh IGFBP7 (11715501_s_at) / RFU REEP3 (11722064_at) / Fold change /veh REEP3 (11722064_at) / RFU IGLL1 (11728026_x_at) / Fold change /veh IGLL1 (11728026_x_at): dose or concentration left out as unconfirmed
Details: ProbeSet 11763895_x_at; LIST B

Structure (SMILES): Nc1ccc(-c2cccs2)cc1NC(=O)c1ccc2c(c1)cc(C1CC1)n2CCN1CCOCC1 [ACY-1035]
- Fold change vs veh, SNORA58: 0.89
